Assay results from publication PMC5228037, “Discovery and Mechanistic Characterization of Selective Inhibitors of H2S-producing Enzyme: 3-Mercaptopyruvate Sulfurtransferase (3MST) Targeting Active-site Cysteine Persulfide” (Scientific Reports, 2017).
Entries after “also recorded” stand apart in the source; their conditions may differ.

Key:
non-persulfurated 3MST = molecular target: T1, non-persulfurated 3MST (Mus musculus, UniProt Q99J99); assay: ITC analysis with non-persulfurated 3MST; format: binding; conditions: 3MP-untreated 3MST
T1 construct: The recombinant full-length wild-type mouse 3MST; made in house; host or cells: E. coli JM109 (DE3)
T1 sequence (Q99J99 1-297): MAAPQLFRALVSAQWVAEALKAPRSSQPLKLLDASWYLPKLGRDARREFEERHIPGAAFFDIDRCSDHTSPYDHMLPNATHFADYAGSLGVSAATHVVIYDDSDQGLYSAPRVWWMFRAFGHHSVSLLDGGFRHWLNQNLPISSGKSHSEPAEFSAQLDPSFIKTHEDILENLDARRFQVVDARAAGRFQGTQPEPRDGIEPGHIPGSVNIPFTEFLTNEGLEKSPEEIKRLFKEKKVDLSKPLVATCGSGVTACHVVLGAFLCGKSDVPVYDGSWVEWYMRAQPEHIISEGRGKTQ
Procedure: The recombinant full-length wild-type mouse 3MST and mutant m3MST (C65S/C255S/C264S) were expressed as an N-terminal His-tagged protein ([…]-3MST) in E. coli JM109 (DE3). The pET44a(+) vector (Novagen) was used as an expression vector. Cells were grown at 37 °C in LB broth (Miller) or 2 × YT broth containing 0.1 g/L ampicillin to OD600 about 0.5, and then protein expression was induced by adding IPTG (final conc. 0.5 mM (LB), 1 mM (2 × YT)). Cells were cultured overnight at 18–20 °C with shaking and harvested at 4 °C by centrifugation at 9,000 rpm for 5 min. Harvested cells were resuspended in lysis buffer containing 0.1 M HEPES-NaOH pH 8, 0.5 M NaCl, 0% or 10% glycerol, 0.5 mM TCEP, 1 mM PMSF, and 1% EtOH, and disrupted by sonication. Cell lysis solutions were centrifuged at 20,000 rpm for 20 min. […] The proteins were further purified on HisTrap HP (GE Healthcare) by increasing the imidazole concentration in buffer containing 0.02 M HEPES pH 8, 0.15 M NaCl, 10% glycerol, and 0.05 mM TCEP until proteins were eluted. Then the His-tag was removed by GST-fusion HRV 3 C protease digestion. […]

persulfurated 3MST = molecular target: T2, persulfurated 3MST (Mus musculus, UniProt Q99J99); assay: ITC analysis with persulfurated 3MST; format: binding; conditions: 25 °C; for ΔH (ITC): persulfurated 3MST; for Kd: persulfurated (3MP-treated) 3MST, pH 9, read-out: Dissociation constant Kd (ITC)
T2 construct: The recombinant full-length wild-type mouse 3MST; made in house; host or cells: E. coli JM109 (DE3)
T2 sequence (Q99J99 1-297): T1 sequence (Q99J99 1-297)
Procedure: The recombinant full-length wild-type mouse 3MST and mutant m3MST (C65S/C255S/C264S) were expressed as an N-terminal His-tagged protein ([…]-3MST) in E. coli JM109 (DE3). The pET44a(+) vector (Novagen) was used as an expression vector. Cells were grown at 37 °C in LB broth (Miller) or 2 × YT broth containing 0.1 g/L ampicillin to OD600 about 0.5, and then protein expression was induced by adding IPTG (final conc. 0.5 mM (LB), 1 mM (2 × YT)). Cells were cultured overnight at 18–20 °C with shaking and harvested at 4 °C by centrifugation at 9,000 rpm for 5 min. Harvested cells were resuspended in lysis buffer containing 0.1 M HEPES-NaOH pH 8, 0.5 M NaCl, 0% or 10% glycerol, 0.5 mM TCEP, 1 mM PMSF, and 1% EtOH, and disrupted by sonication. Cell lysis solutions were centrifuged at 20,000 rpm for 20 min. […] The proteins were further purified on HisTrap HP (GE Healthcare) by increasing the imidazole concentration in buffer containing 0.02 M HEPES pH 8, 0.15 M NaCl, 10% glycerol, and 0.05 mM TCEP until proteins were eluted. Then the His-tag was removed by GST-fusion HRV 3 C protease digestion. The proteins were further purified by anion exchange chromatography on a HiTrap Q HP (GE Healthcare) by increasing the NaCl concentration in buffer containing 0.02 M HEPES pH 8, 10% glycerol, 0.5 mM TCEP until proteins were eluted, and then by gel filtration chromatography on Superdex 75 prep grade using buffer containing 0.02 M HEPES pH 7.5, 0.3 M NaCl, 0.5 mM TCEP. Wild-type 3MST was used in ITC analysis and mutant 3MST was used for crystallization.
Persulfurated 3MST was prepared as follows: 3MST-3MP solution (5 μM 3MST, 25 μM 3MP, 20 μM TCEP, 0.02 M glycine-NaOH pH9, 0.1 M NaCl) was incubated for 2 hr at room temperature. To prevent buffer mismatch and to remove unreacted 3MP and reaction product (pyruvate), the reaction solution was exchanged to ITC measurement solution (0.02 M glycine-NaOH pH 9, 0.1 M NaCl, 5% DMSO) using an Amicon Ultra (10 K) (Millipore) or Vivaspin (10 K) (Sartorius). Non-persulfurated 3MST solution was also prepared by buffer exchange. Both inhibitors were dissolved in the ITC measurement solution. Inhibitor solution (0.5 mM compound 1 or 0.25 mM compound 3) were titrated into a protein solution (0.05 mM 3MST) at 25 °C using a MicroCal iTC200 (GE Healthcare). The first injection of 0.4 μL was followed by 18 injections of 2 μL with 150 s between each injection. Each experiment was repeated three times (n = 3). For data analysis, the first injection peak was removed. Data analyses and curve fitting to a single-site binding model were performed by Origin7 SR4 software (OriginLab).

ΔH (ITC) (persulfurated 3MST) [kcal/mol]	Kd (persulfurated 3MST) [nM]	SMILES	Binding to non-persulfurated 3MST (ITC heat release) (non-persulfurated 3MST)
-9.37	3000	NC(=O)c1ccsc1NC(=O)CSc1nc2ccccc2c(=O)[nH]1 [compound 1]	no heat release; also recorded: do not bind
-11.76	500	Cc1cc(=O)[nH]c(SCC(=O)c2cccc3ccccc23)n1 [compound 3]	no heat release; also recorded: do not bind
